≈ marks a conversion by molar mass, not a printed value. Calls of active or inactive are those of the source. The calls are words filed in the database; no cut-off is given here.

Holding throughout (format): functional
In assay [1] the test system is Escherichia coli. The experiment in a line: Antibacterial activity against Escherichia coli ATCC 35218 at 400 ug/ml after 24 hr by cup-plate agar method. Conditions: for zone of inhibition at 400 µg/mL: ATCC 35218, 24 h, read-out: IZ.
For assay [2], the system named is Staphylococcus aureus. The experiment in a line: Antibacterial activity against Staphylococcus aureus ATCC 29737 at 400 ug/ml after 24 hr by cup-plate agar method. To be noted: for zone of inhibition at 400 µg/mL: ATCC 29737, 24 h, read-out: IZ.
Assay [3] relates to Candida albicans. The experiment in a line: Antifungal activity against Candida albicans ATCC 10231 at 400 ug/ml after 24 hr by cup-plate agar method. To be noted: for zone of inhibition at 400 µg/mL: ATCC 10231, 24 h, read-out: IZ.
Assay [4] relates to Escherichia coli. The experiment in a line: Antibacterial activity against Escherichia coli ATCC 35218 after 24 hr by disk diffusion method. Conditions: ATCC 35218, 24 h. A general note: In agar diffusion tests the substance spreads into inoculated agar from a disc or well.
Assay [5] relates to Staphylococcus aureus. The experiment in a line: Antibacterial activity against Staphylococcus aureus ATCC 29737 after 24 hr by disk diffusion method. To be noted: ATCC 29737, 24 h.
The subject of assay [6] is Candida albicans. Description: Antifungal activity against Candida albicans ATCC 10231 after 24 hr by disk diffusion method. Conditions: ATCC 10231, 24 h.

With GENTAMICIN, the values for the inhibition zone (IZ) in the assay with Escherichia coli [1] and with Staphylococcus aureus [2] were 24 mm and 23 mm, respectively.
For the compound `O=C(/C=C/c1cccc(Cl)c1)c1ccc(C(=O)/C=C/c2cccc(Cl)c2)cc1`, the zone of inhibition at 400 µg/mL stood at 12 mm in the assay on Candida albicans [3] and 13 mm in the assay with Escherichia coli [1]. Also, the MIC against Escherichia coli [4] and with Staphylococcus aureus [5] was 300 µg/mL (≈ 737 µM) each time. Also, the “inhibition zone (IZ)” value with Staphylococcus aureus [2] was “inactive”.
Take `O=C(/C=C/c1cccc([N+](=O)[O-])c1)c1ccc(C(=O)/C=C/c2cccc([N+](=O)[O-])c2)cc1`: the “inhibition zone (IZ)” value in the assay with Candida albicans [3], in the assay with Escherichia coli [1] and with Staphylococcus aureus [2] was “inactive” throughout.
For `COc1ccc(/C=C/C(=O)c2ccc(C(=O)/C=C/c3ccc(OO)cc3)cc2)cc1`, the zone of inhibition at 400 µg/mL with Candida albicans [3] was determined as 22 mm. The “inhibition zone (IZ)” value with Escherichia coli [1] and in the assay with Staphylococcus aureus [2] was “inactive” each time. This compound also yielded an MIC against Staphylococcus aureus [5] of 300 µg/mL (≈ 749 µM).
Turning to `COc1ccccc1/C=C/C(=O)c1ccc(C(=O)/C=C/c2ccccc2OC)cc1`, the zone of inhibition at 400 µg/mL in the assay on Candida albicans [3] was 9 mm. Also, the “inhibition zone (IZ)” value in the assay on Escherichia coli [1] and with Staphylococcus aureus [2] was “inactive” throughout. Inhibition of growth with Staphylococcus aureus [5] (MIC) required 300 µg/mL (≈ 753 µM).
With `COc1cccc(/C=C/C(=O)c2ccc(C(=O)/C=C/c3cccc(OC)c3)cc2)c1`, the “inhibition zone (IZ)” value with Candida albicans [3], in the assay on Escherichia coli [1] and with Staphylococcus aureus [2] was “inactive” throughout.
On to `O=C(/C=C/c1ccccc1)c1ccc(C(=O)/C=C/c2ccccc2)cc1`, for which the figures for the zone of inhibition at 400 µg/mL with Candida albicans [3], with Escherichia coli [1] and in the assay on Staphylococcus aureus [2] were 17 mm, 13 mm and 10 mm, respectively. The MIC against Candida albicans [6], against Escherichia coli [4] and with Staphylococcus aureus [5] was 200 µg/mL (≈ 591 µM) throughout.
For the compound `O=C(/C=C/c1ccc(Cl)cc1)c1ccc(C(=O)/C=C/c2ccc(Cl)cc2)cc1`, the zone of inhibition at 400 µg/mL was 12 mm in the assay with Candida albicans [3], 23 mm in the assay on Escherichia coli [1] and 10 mm in the assay on Staphylococcus aureus [2]. Also, the minimal inhibitory concentration (MIC) with Candida albicans [6] is 200 µg/mL (≈ 491 µM); against Escherichia coli [4] it was 100 µg/mL (≈ 246 µM); with Staphylococcus aureus [5], 200 µg/mL (≈ 491 µM).
In the case of `C[C@@H]1[C@H](O)[C@@H](C)/C=C/C=C/C=C/C=C/C=C/C=C/C=C/[C@H](O[C@@H]2O[C@H](C)[C@@H](O)[C@H](N)[C@@H]2O)C[C@@H]2O[C@](O)(C[C@@H](O)C[C@@H](O)[C@H](O)CC[C@@H](O)C[C@@H](O)CC(=O)O[C@H]1C)C[C@H](O)[C@H]2C(=O)O` [AMPHOTERICIN B], the zone of inhibition at 400 µg/mL with Candida albicans [3] came to 21 mm.
Consider `O=C(/C=C/c1cccc(Br)c1)c1ccc(C(=O)/C=C/c2cccc(Br)c2)cc1`, for which, in the assay on Candida albicans [3], the “inhibition zone (IZ)” value is “inactive”. The zone of inhibition at 400 µg/mL in the assay on Escherichia coli [1] was 30 mm; in the assay with Staphylococcus aureus [2], 10 mm. In addition, the results for the MIC in the assay on Candida albicans [6] and in the assay on Escherichia coli [4] were 200 µg/mL (≈ 403 µM) and 50 µg/mL (≈ 101 µM), respectively.
`O=C(/C=C/c1ccc(Br)cc1)c1ccc(C(=O)/C=C/c2ccc(Br)cc2)cc1`: the “inhibition zone (IZ)” value in the assay with Candida albicans [3] was “inactive”. Further, the zone of inhibition at 400 µg/mL worked out at 30 mm with Escherichia coli [1] and 9 mm in the assay on Staphylococcus aureus [2]. Moreover, the MIC against Candida albicans [6] worked out at 200 µg/mL (≈ 403 µM); in the assay with Escherichia coli [4], 50 µg/mL (≈ 101 µM).
`O=C(/C=C/c1ccc([N+](=O)[O-])cc1)c1ccc(C(=O)/C=C/c2ccc([N+](=O)[O-])cc2)cc1`: the zone of inhibition at 400 µg/mL came to 25 mm with Candida albicans [3], 13 mm in the assay on Escherichia coli [1] and 10 mm in the assay on Staphylococcus aureus [2]. Moreover, the minimum inhibitory concentration (MIC) was 200 µg/mL (≈ 467 µM) with Candida albicans [6], 50 µg/mL (≈ 117 µM) with Escherichia coli [4] and 50 µg/mL (≈ 117 µM) against Staphylococcus aureus [5].
Take `O=C(/C=C/c1ccccc1[N+](=O)[O-])c1ccc(C(=O)/C=C/c2ccccc2[N+](=O)[O-])cc1`: the zone of inhibition at 400 µg/mL in the assay on Candida albicans [3] came to 15 mm; with Escherichia coli [1], 21 mm; with Staphylococcus aureus [2], 15 mm. Further, the minimal inhibitory concentration (MIC) against Candida albicans [6], in the assay with Escherichia coli [4] and in the assay with Staphylococcus aureus [5] was 100 µg/mL (≈ 233 µM) in each case.
Take `O=C(/C=C/c1ccccc1O)c1ccc(C(=O)/C=C/c2ccccc2O)cc1`: the “inhibition zone (IZ)” value with Candida albicans [3] is “inactive”. Besides, the zone of inhibition at 400 µg/mL in the assay with Escherichia coli [1] stood at 30 mm; in the assay on Staphylococcus aureus [2] it was 13 mm. In addition, the MIC in the assay with Candida albicans [6] amounted to 100 µg/mL (≈ 270 µM); in the assay on Escherichia coli [4] it was 50 µg/mL (≈ 135 µM).
For `COc1ccc(/C=C/C(=O)c2ccc(C(=O)/C=C/c3ccc(OC)c(OC)c3)cc2)cc1OC` the same measures were “inactive”, 30 mm, 11 mm, 200 µg/mL (≈ 436 µM) and 100 µg/mL (≈ 218 µM).
For `O=C(/C=C/c1ccccc1Cl)c1ccc(C(=O)/C=C/c2ccccc2Cl)cc1`, the zone of inhibition at 400 µg/mL in the assay on Candida albicans [3] stood at 12 mm; with Escherichia coli [1], 27 mm; with Staphylococcus aureus [2] it was 10 mm. Moreover, the MIC amounted to 100 µg/mL (≈ 246 µM) with Candida albicans [6], 100 µg/mL (≈ 246 µM) against Escherichia coli [4] and 200 µg/mL (≈ 491 µM) against Staphylococcus aureus [5].

Broadly, the MIC is the least concentration at which growth counts as inhibited. Read a low MIC as a more susceptible organism.
